PubChem BioAssay (NCI)
Where “and” joins values, the source holds several entries; their conditions need not be identical. Equal values may be shown once.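 Grown in 96-well plates, cells were treated for 48 hours with each compound at five concentrations. Insufficient inhibition: endpoint recorded as highest concentration tested. GI50: concentration for 50% inhibition of growth. Definition used: TGI = concentration required for complete inhibition of growth.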

Experiments:
Test in all cases: NCI tumour cell line growth inhibition, 48 h
[1] = system: NCI-H23 lung
[2] = system: T-47D breast
[3] = system: RPMI-8226 leukemia
[4] = system: HCT-15 colon
[5] = system: LOX IMVI melanoma
[6] = system: NCI/ADR-RES ovarian
[7] = system: DU-145 prostate
[8] = system: BT-549 breast

SMILES	GI50 [1]	TGI [1]	GI50 [2]	TGI [2]	GI50 [3]	TGI [3]	GI50 [4]	TGI [4]	GI50 [5]	TGI [5]	GI50 [6]	TGI [6]	GI50 [7]	TGI [7]	GI50 [8]	TGI [8]
O=C(NCCCCCCNC(=O)OCc1ccc2c(Cl)cc(Cl)c(O)c2n1)OCc1ccc2c(Cl)cc(Cl)c(O)c2n1	1.42 µM	3.06 µM	1.75 µM	5.67 µM	0.311 µM	1.68 µM	0.317 µM	1.02 µM	0.325 µM	1.1 µM	0.518 µM	6.58 µM	1.03 µM	2.24 µM	0.748 µM	2.17 µM
CNC(=O)CN1CCC(Oc2cc3c(Nc4cccc(Cl)c4F)ncnc3cc2OC)CC1	18.2 µM and > 7.11 µM	> 58.5 µM	1.24 µM and 0.53 µM	18.1 µM and > 7.9 µM	32.2 µM and > 10 µM	> 100 µM	11.2 µM and > 5.17 µM	67.6 µM and > 10 µM	8.12 µM and > 5.06 µM	20.9 µM and > 10 µM	11.4 µM and > 6.36 µM	66.4 µM and > 10 µM	3.64 µM and 2.19 µM	> 56 µM	16.2 µM and > 10 µM	38.9 µM and > 10 µM
C/C(=C\c1ccn(-c2ccc(N)cc2F)n1)[C@@H]1C[C@@H]2O[C@]2(C)CCC[C@H](C)[C@H](O)[C@@H](C)C(=O)C(C)(C)[C@@H](O)CC(=O)O1	0.033 µM	> 50 µM	0.0605 µM	> 50 µM	0.0204 µM	> 50 µM	0.0226 µM	> 50 µM	0.0241 µM	> 50 µM	0.0921 µM	1.19 µM	0.024 µM	0.285 µM	0.0943 µM	> 50 µM
Cc1nc2sc(C(=O)Nc3cccc(Br)c3)c(N)c2cc1C(O)c1ccccc1 (stereo not given)	1.13 µM	17.9 µM	0.665 µM	31 µM	0.511 µM	> 23.1 µM	0.403 µM	17.3 µM	0.731 µM	22.9 µM	0.619 µM	8.47 µM	0.672 µM	13.9 µM	1.75 µM	19.9 µM
CSC1(CC(=O)N2CCCCC2)C(=O)Nc2ccccc21 (stereo not given)		> 100 µM		> 100 µM		> 100 µM		> 100 µM		> 100 µM		> 100 µM		> 100 µM		> 100 µM
Cn1c(=N)n[n+]([O-])c2ccccc21	2.44 µM	4.4 µM and 6.39 µM	4.34 µM and 9.12 µM	21.5 µM and 43.2 µM	1.99 µM and 0.574 µM	5.19 µM and 7.67 µM	4.72 µM	10.8 µM		> 100 µM	4.44 µM and 9.2 µM	> 100 µM and 42 µM		4.11 µM and 4.12 µM		3.27 µM and 3.46 µM
Cc1nn(C)c2cc(N(C)c3ccnc(Nc4cccc(S(N)(=O)=O)c4)n3)ccc12	6.6 µM	> 25 µM	> 7.8 µM	> 21.1 µM	6.82 µM	> 25 µM	9.02 µM	> 25 µM	7.14 µM	> 25 µM	7.85 µM	> 25 µM	7.18 µM	> 25 µM	8.69 µM	> 23.5 µM
CC#CC(=O)N1CC[C@@H](n2c(=O)n(-c3ccc(Oc4ccccc4)cc3)c3c(N)ncnc32)C1	36.8 µM	> 100 µM	12.2 µM	62.9 µM	14.7 µM	66.3 µM	26.3 µM	> 100 µM	18.6 µM	83.4 µM	24.2 µM	> 100 µM	33.5 µM	> 100 µM	14.5 µM	55 µM
COc1cnc2c(c1)C(=O)c1c-2n(CCCNC(C)C)c(=O)c2cc([N+](=O)[O-])ccc12	0.0401 µM	0.285 µM	0.0393 µM	1.14 µM	0.0487 µM	0.738 µM	0.124 µM	0.402 µM	0.0189 µM	0.104 µM	0.0343 µM	0.267 µM	0.0502 µM	0.403 µM	0.107 µM	0.314 µM
Nc1nc(-c2ccccc2)cc(-c2ccc(Cl)cc2)c1-c1nc2ccccc2o1	23.5 µM	> 100 µM	4.21 µM	27.3 µM	4.82 µM	19.8 µM	10.4 µM	23.2 µM	6.04 µM	18.4 µM	11.5 µM	43.4 µM	12.8 µM	26 µM	15.5 µM	29.7 µM
COc1ccc(C2CC(=O)c3c(O)c(OC)c(OC)c(OC)c3O2)cc1O (stereo not given)	0.547 µM	> 100 µM	19.2 µM	77.9 µM	0.286 µM	> 77.5 µM	0.0459 µM	> 100 µM	0.0701 µM	> 100 µM	0.0616 µM	> 100 µM	0.225 µM	> 100 µM	0.0745 µM	31.2 µM
COc1ccc(C2c3c(-c4ccccc4)nn(-c4ccccc4)c3Oc3ncn4nc(CC#N)nc4c32)cc1OC (stereo not given)	47.2 µM and 19.5 µM	> 100 µM		> 54 µM	> 100 µM and 20.9 µM	> 100 µM		> 100 µM	15.7 µM and 3.63 µM	35.8 µM and 26.3 µM	26.2 µM and 3.6 µM	67.5 µM and > 45.4 µM		> 100 µM	19.9 µM and 8.82 µM	59.2 µM and > 41.6 µM
Fc1cccc(-c2[nH]nc3nc(Nc4cccnc4)sc23)c1	23 µM	> 100 µM	8.69 µM	> 100 µM	5.79 µM	> 100 µM	0.948 µM	> 100 µM	3.68 µM	> 100 µM	1.83 µM	> 100 µM	4.71 µM	24.8 µM	14.9 µM	47 µM
COc1cc(N2CCC(N3CCN(C)CC3)CC2)ccc1Nc1ncc(Cl)c(Nc2ccccc2S(=O)(=O)C(C)C)n1	1.05 µM	8.1 µM	1.59 µM	3.55 µM	0.924 µM	6.46 µM	1.94 µM	11.5 µM	0.332 µM	1.47 µM	1.29 µM	5.75 µM	1.46 µM	7.88 µM	2.09 µM	5.6 µM
